# Test results: patent US7232828B2, “PPAR Ligands that do not cause fluid retention, edema or congestive heart failure” (Bethesda Pharmaceuticals, Inc., priority 2002, dated 2007)
# Entries after “also recorded” stand apart in the source; their conditions may differ. Like-named read-outs stand apart in the source and are kept apart here.
# Tests used:
# PPARγ = molecular target: T1, PPARγ (Homo sapiens, UniProt P37231); experiment: PPARγ transactivation assay in transfected CV-1 cells (luciferase reporter); format: cell-based; details: for Activation of PPARγ (in words): at doses reasonably achievable at therapeutic doses
# T1 construct: expressed in transfected cells; host or cells: CV-1 cells (CCL-70, ATCC)
# T1 sequence (P37231 1-505): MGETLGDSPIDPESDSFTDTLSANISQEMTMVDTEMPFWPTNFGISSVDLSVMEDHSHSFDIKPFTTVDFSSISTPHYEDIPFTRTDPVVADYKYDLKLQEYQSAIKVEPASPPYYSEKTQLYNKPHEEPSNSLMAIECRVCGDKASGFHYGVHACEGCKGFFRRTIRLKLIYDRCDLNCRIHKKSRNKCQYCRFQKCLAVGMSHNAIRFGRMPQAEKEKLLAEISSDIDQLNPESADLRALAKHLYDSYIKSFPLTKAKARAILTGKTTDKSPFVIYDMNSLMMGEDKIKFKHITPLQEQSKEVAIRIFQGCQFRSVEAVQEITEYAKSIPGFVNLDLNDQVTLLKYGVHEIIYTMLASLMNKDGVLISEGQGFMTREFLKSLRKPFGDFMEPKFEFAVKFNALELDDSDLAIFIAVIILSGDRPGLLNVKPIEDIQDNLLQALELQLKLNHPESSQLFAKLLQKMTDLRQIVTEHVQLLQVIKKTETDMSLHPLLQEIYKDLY
# Description: ARBs, or derivatives thereof, may be tested for their ability to activate the various PPAR isoforms by utilizing standard screening methods known to those skilled in the art including but not limited to cell based transactivation assays or cell free assays that test the ability of a compound to activate a PPAR construct by measuring the output of a reporter signal that reflects the extent of the PPAR activation. For example, the angiotensin receptor blocker telmisartan is added to the culture media of CV1 cells or other cells that can be transfected with a full length or partial PPAR cDNA sequence together with a reporter construct containing a PPAR response element or other appropriate response element fused to a reporter gene such as luciferase. […] Cell extracts were assayed for luciferase and β-galactosidase activity using Promega (Madison, Wis.) assay systems. All treatments were performed in triplicate, and normalized for β-galactosidase activity. Agonist concentrations yielding half maximal activation (EC50 values) were calculated using GraphPad Prism version 3.03 (GraphPad Software, Inc., San Diego, Calif.).
# [1] = system: mouse preadipocyte cell line (3T3-L1); experiment: In vitro adipocyte differentiation (adipogenesis) activity; format: cell-based
# Description: The following examples 2 and 3 provide a generic means to measure adipocyte differentation to determine if one has an insulin-sensitizing agent. […] The cells are then plated at 1.5×10^4/cm^2 in a 96-well tissue culture plate (view plate, 96 white, Packard) coated with type 1 collagen. […] The compounds added from a stock solution of dimethyl sulfoxide (DMSO). […] DMSO (0.1%) was added to the control cultures. The medium was replaced with maintenance medium (DMEM supplemented with 5% of FBS and 100 ng/mL of insulin), and the cells cultured for 2 more days. Activity of stimulation of adipogenesis was determined by exposure of the cells to [14-C]-acetic acid (7.4 kBq/mL), and uptake of [14-C]-acetic acid monitored after 1 h of incubation. The medium is discarded and the cells washed twice with phosphate-buffered saline. The cells are air-dried, and […] of scintillation cocktail (Microscint-20, Packard) added to the wells, and counted with a Packard TopCount microplate scintillation counter.
# [2] = obese Zucker rat, oral, extremely high dose; cited from earlier work
# human preadipocytes = details: high concentrations; cited from earlier work
# [3] = patients with mild hypertension; cited from earlier work
# [4] = format: in vivo, human
# Text: Insulin resistance is defined as a state in which circulating insulin levels in excess of the normal response to a glucose load are required to maintain the euglycemic state (Ford ES, et al. JAMA. (2002) 287:356-9). Insulin resistance, and the response of a patient with insulin resistance to therapy, may be quantified by assessing the homeostasis model assessment to insulin resistance (HOMA-IR) score, a reliable indicator of insulin resistance (Katsuki A, et al. Diabetes Care 2001;24:362-5). The estimate of insulin resistance by the homeostasis assessment model (HOMA)-IR score is calculated with the formula (Galvin P, et al. Diabet Med 1992;9:921-8): HOMA-IR=[fasting serum insulin (μU/mL)]×[fasting plasma glucose (mmol/L)/22.5]
# A person with the metabolic syndrome was selected for therapy. […] The patient has the metabolic syndrome as defined by the National Cholesterol Education Program. The metabolic syndrome is associated with a 5-9 fold increase in the risk for developing type 2 diabetes and a 2-3 fold increase risk in cardiovascular mortality.
# [5] = Clinical trial in a patient with osteoarthritis and inflammation (elevated CRP); format: in vivo, human; details: for Serum CRP level: baseline 7.9
# Text: A person with osteoarthritis and inflammation as judged by elevated C-reactive protein (CRP) levels was selected for therapy.
# [6] = conventional oral dosing; cited from earlier work
# [7] = Clinical trial in a patient with hypertension, hypertriglyceridemia and type 2 diabetes
# [8] = 160 mg/day oral, after seven weeks
smiles,measurement,setting,value
CCCCc1ncc(/C=C(\Cc2cccs2)C(=O)O)n1Cc1ccc(C(=O)O)cc1 [eprosartan],Activation of PPARγ (in words),PPARγ,do not activate PPARγ
same,Promotion of adipogenesis (in words),[1],did not promote adipogenesis
CCCCC1=NC2(CCCC2)C(=O)N1Cc1ccc(-c2ccccc2-c2nnn[nH]2)cc1 [irbesartan],Activation of PPARγ / luciferase reporter gene activity (in words),PPARγ,can activate PPARγ; also recorded: found to activate PPARgamma
same,PPARγ activation (fold activation),"PPARγ; tested at 10 μM, CV-1 cells",2-3 fold
same,Insulin sensitivity,[2],improved insulin sensitivity
same,Lipid levels,[2],failed to improve lipid levels
same,Adipogenesis,human preadipocytes,can enhance adipogenesis
CCCCc1nc(Cl)c(CO)n1Cc1ccc(-c2ccccc2-c2nn[nH]n2)cc1 [losartan],"Effect on glucose metabolism, insulin sensitivity, and serum concentrations",[3],neutral effect
CCCc1nc2c(C)cc(-c3nc4ccccc4n3C)cc2n1Cc1ccc(-c2ccccc2C(=O)O)cc1 [telmisartan],Activation of PPARγ / luciferase reporter gene activity (in words),PPARγ,can activate PPARγ; also recorded: significant increase in reporter gene activity
same,EC50,PPARγ,5.6 µM
same,PPARγ activation relative to maximum level of activity achieved by full agonists pioglitazone and rosiglitazone,PPARγ; CV-1 cells,25%-30%
same,PPARγ activation (fold),"PPARγ; tested at 1-5 μM, CV-1 cells, 24 hr",5-8 fold
same,Promotion of adipogenesis (in words),[1],promote adipogenesis
same,Diagnostic criteria of the metabolic syndrome (NCEP),"[4]; 80 mg/day oral, after two weeks",no longer meets the diagnostic criteria of the metabolic syndrome
same,Fasting glucose,"[4]; 80 mg/day oral, after two weeks, baseline 118",105 mg/dL
same,Fasting triglyceride level,"[4]; 80 mg/day oral, after two weeks, baseline 129",115 mg/dL
same,Blood pressure,"[4]; 80 mg/day oral, after two weeks, baseline 160/79",130/69
same,Insulin resistance as determined by HOMA-IR score (in words),[4]; patient with the metabolic syndrome,improved insulin resistance
same,Serum CRP level,"[5]; 80 mg/day oral, after 6 weeks",4.1 mg/L
same,Symptoms of inflammation and osteoarthritis,"[5]; 80 mg/day oral, after 9 weeks",stabilized
same,Serum CRP level,"[5]; 80 mg/day oral, after 9 weeks",3.9 mg/L
same,"Fluid retention, peripheral edema, pulmonary edema, congestive heart failure on clinical examination","[5]; osteoarthritis patient, 80 mg/day","no evidence of any increase in fluid retention, peripheral edema, pulmonary edema, or congestive heart failure"
same,Concentrations that can be achieved in plasma,[6],1000 to 5000 nM
same,HDL cholesterol,"[7]; 80 mg/day oral, after three weeks, baseline 48",50 mg/dL
same,Blood pressure,"[7]; 80 mg/day oral, after three weeks, baseline 160/90",143/91
same,Fasting glucose,"[7]; 80 mg/day oral, after three weeks, baseline 183",188 mg/dL
same,Triglyceride,"[7]; 80 mg/day oral, after three weeks, baseline 264",281 mg/dL
same,Blood pressure,[7]; [8],131/81
same,Glucose level,[7]; [8],145 mg/dL
same,HDL cholesterol,[7]; [8],60 mg/dL
same,Triglyceride level,[7]; [8],178 mg/dL
same,Blood HDL-cholesterol (in words),[7]; patient with type 2 diabetes,elevated blood HDL-cholesterol
same,Hyperglycemia (in words),[7]; patient with type 2 diabetes,lowered the hyperglycemia
same,Plasma triglycerides (in words),[7]; patient with type 2 diabetes,lowers plasma triglycerides
same,"Fluid retention, peripheral edema, pulmonary edema, congestive heart failure on clinical examination","[7]; type 2 diabetes patient, 160 mg/day","no evidence of any increase in fluid retention, peripheral edema, pulmonary edema, or congestive heart failure"
CCCCC(=O)N(Cc1ccc(-c2ccccc2-c2nnn[nH]2)cc1)[C@H](C(=O)O)C(C)C [valsartan],Activation of PPARγ (in words),PPARγ,do not activate PPARγ
same,Promotion of adipogenesis (in words),[1],did not promote adipogenesis
